Values of other authors in patent US20230201171A1, “COMPOSITIONS AND METHODS FOR PREVENTING POST-ERCP PANCREATITIS” (THE BOARD OF TRUSTEES OF THE LELAND STANFORD JUNIOR …, priority 2020, published 2023).

System: post-ERCP pancreatitis (PEP)
Settings: rectal indomethacin alone, current standard of care

In the case of `COc1ccc2c(c1)c(CC(=O)O)c(C)n2C(=O)c1ccc(Cl)cc1` [rectal indomethacin, indomethacin], the “effectiveness of PEP prophylaxis” value is listed as 35-40%.
